Molecules are shown by their SMILES. Counter-ions that a name gives are not always drawn. Like-named read-outs stand apart in the source and are kept apart here. Bounds are passed on as bounds.

The values that follow come from article PMC10537538, “Preclinical Investigation of a Lipoglycopeptide Dry Powder Inhalation Therapy for the Treatment of Pulmonary MRSA Infection” (Pharmaceutics, 2023).

The conditions of data set [1]: cited from earlier work.
The subject of a further data set is MSSA ATCC 29213. Kind of data set: MIC by CLSI broth microdilution, MSSA. The class given is cell-based. The following applies: Staphylococcus aureus, read-out: MSSA MIC. The text has this:
(§1) In Vitro Susceptibility. Clinical and Laboratory Standards Institute (CLSI) guidelines were followed for the determination of the minimum inhibitory concentration (MIC), using cation-adjusted Mueller Hinton broth microdilution at a starting inoculum level of 5 × 10^5 colony forming units (CFUs) per mL [24, 25]. MIC was read by optical density on a BioTek Synergy H1 plate reader (BioTek, Winooski, VT, USA) at 595 nm. Strains used were MRSA ATCC BAA-1556 (USA300, SCCmecIV, pvl^+) and MSSA ATCC 29213 (American Type Culture Collection, Manassas, VA, USA). MIC data are reported as a range to reflect the fact that the value is determined using step dilution.

For data set [2], the system named is MRSA ATCC BAA-1556 (USA300). The experiment in a line: MIC by CLSI broth microdilution, MRSA. The class given is cell-based, Staphylococcus aureus. The following applies: for MIC: Staphylococcus aureus, read-out: MRSA MIC.
Source text: as §1
In general terms: In broth dilution the organism is exposed to a series of concentrations in liquid medium.

The MIC is the lowest concentration that inhibits growth of the organism. Consider `CCCCCCCCCCNC(=O)CN[C@@]1(C)C[C@H](O[C@H]2[C@H](Oc3c4cc5cc3Oc3ccc(cc3Cl)[C@@H](O)[C@@H](NC(=O)[C@@H](CC(C)C)NC)C(=O)N[C@@H](CC(N)=O)C(=O)N[C@H]5C(=O)N[C@H]3C(=O)N[C@H](C(=O)N[C@H](C(=O)O)c5cc(O)cc(O)c5-c5cc3ccc5O)[C@H](O)c3ccc(c(Cl)c3)O4)O[C@H](CO)[C@@H](O)[C@@H]2O)O[C@@H](C)[C@H]1O` [RV94, N^van-2-amino-N-decylacetamide vancomycin], for which the “pH needed to dissolve drug substance” value is given as over 9. Besides, in data set [1] (rat, in vivo, inhaled or intranasal), the “lung half-life, nebulized form” value is on record as “approximately 4.5 days”. In addition, the MIC in the data set with MSSA ATCC 29213 (ATCC 29213, CLSI) was in the range of 0.031 to 0.063 µg/mL. Moreover, the “potency relative to vancomycin (fold more potent)” value in data set [2] (MIC, MSSA and MRSA isolates) was “ca. 15 fold”. Also, in data set [2] (ATCC BAA-1556 (USA300), CLSI), the MIC was in the range of 0.031 to 0.063 µg/mL.
As for `CN[C@H](CC(C)C)C(=O)N[C@H]1C(=O)N[C@@H](CC(N)=O)C(=O)N[C@H]2C(=O)N[C@H]3C(=O)N[C@H](C(=O)N[C@H](C(=O)O)c4cc(O)cc(O)c4-c4cc3ccc4O)[C@H](O)c3ccc(c(Cl)c3)Oc3cc2cc(c3O[C@@H]2O[C@H](CO)[C@@H](O)[C@H](O)[C@H]2O[C@H]2C[C@](C)(N)[C@H](O)[C@H](C)O2)Oc2ccc(cc2Cl)[C@H]1O` [Vancomycin, Vancomycin HCl, reference compound], the MIC in the data set on MSSA ATCC 29213 lay within 0.5 to 1 µg/mL; in data set [2], 0.5 to 2 µg/mL.
Take `CCCCCCCCCCNCCN[C@@]1(C)C[C@H](O[C@H]2[C@H](Oc3c4cc5cc3Oc3ccc(cc3Cl)[C@@H](O)[C@@H](NC(=O)[C@@H](CC(C)C)NC)C(=O)N[C@@H](CC(N)=O)C(=O)N[C@H]5C(=O)N[C@H]3C(=O)N[C@H](C(=O)N[C@H](C(=O)O)c5cc(O)c(CNCP(=O)(O)O)c(O)c5-c5cc3ccc5O)[C@H](O)c3ccc(c(Cl)c3)O4)O[C@H](CO)[C@@H](O)[C@@H]2O)O[C@@H](C)[C@H]1O` [telavancin, reference compound]: the “lung half-life, nebulized form” value in data set [1] (rats, inhalation of nebulized preparation) was “ca. 21 days”.
